Patent US20100087486A1, “METHODS FOR USING TGF-B RECEPTOR INHIBITORS OR ACTIVIN-LIKE KINASE (ALK) 5 INHIBITORS A-83-01 AND SB-431542 TO TREAT EYE DISEASE AND WOUND HEALING CONDITIONS” (priority 2008, published 2010)
Where two headings read alike, the source gives them in different places.

What was measured:
TGF-β2 signaling pathway = test: Western blotting for α-SMA and fibronectin in TGF-β2-treated fibroblasts; format: cell-based, rabbit; conditions: incubated 48 to 72 hours; for band intensity for fibronectin and α-SMA compared with samples not treated with the inhibitors: more pronounced with higher concentration; for fibronectin and α-SMA protein expression induced by TGF-B2: rabbit subconjunctival fibroblasts, 2 ng/ml TGF-β2
Experimental: (§1) Sample fibroblasts were obtained from New Zealand white rabbit eyes. The fibroblasts were derived from the subconjunctival tissues isolated from the eyes of the subjects. The third to fifth passages of cells were maintained in 25 cm^2 flasks using 3 ml of medium composed of Eagle's minimal essential medium, 10% fetal bovine serum, 5% calf serum, essential and nonessential aminoacids, and antibiotics. When the cells reached confluence, they were trypsinized and passaged.
(§2) The fibroblast cultures in 6-well plates were pre-treated with 2 ml of medium including ALK-5 inhibitors at various concentrations, 0.03, 0.1, […], 1.0, 3.0, and 10.0 μM, for one hour, and were additionally treated with
(§3) 2 ng/ml of TGF-β2 (R&D Systems, Minneapolis, Minn.) for up to 72 hours.
To test for fibronectin and α-SMA protein expression after the treatment with the respective inhibitors, rabbit subconjunctival fibroblasts, as prepared in samples 1-16, were incubated for 48 to 72 hours. […] Band intensity for both proteins was reduced in A-83-01 and SB-431542 treated samples compared with the bands of those samples not treated with the inhibitors. The reduction in protein levels is more pronounced with a higher concentration of the inhibitors. The blots were also probed for β-actin to control for equal protein loading.
Proteins in the cell lysates (20 μg/lane) were resolved on a 10% sodium dodecyl sulfate (SDS)-polyacrylamide gel. The proteins were transferred to nitrocellulose. After blocking with 1% bovine serum albumin, the membranes were probed with monoclonal mouse anti-α-SMA (1:9,000) followed by HRP-conjugated goat anti-mouse IgG (1:150,000; Jackson), or monoclonal mouse anti-fibronectin (1:1,000) followed by HRP-conjugated goat anti-mouse IgG (1:10,000). Signals were detected by enhanced chemiluminescense.

[1] = system: cultured rabbit subconjunctival fibroblasts; test: TGF-β2 activity related to wound healing in cultured fibroblasts (overall conclusion); format: cell-based; conditions: for cell toxicity: cell cultures prepared with either inhibitor; for TGF-β2 activity related to wound healing: cultured rabbit subconjunctival fibroblasts
Experimental: as §1, §2, §3
Thus, these inhibitors may be used as ocular anti-scarring agents, especially for glaucoma filtration surgery.

rabbit fibroblasts = test: Fibroblast morphology by phase contrast microscopy; conditions: 5 ng/ml TGF-β2; for TGF-β2-induced morphologic change (myofibroblast-like appearance): sample 6 (A-83-01 3.0 μM), sample 14 (SB-431542 10.0 μM)
Experimental: In another example, rabbit fibroblasts were prepared as in samples 6, 14, 15, and 16 except that 5 ng/ml of TGF-β2 was added to the samples instead of 2 ng/ml.

TGF-β2-induced proteins [2] = test: Immunocytofluorescence microscopy for CTGF, fibronectin and α-SMA; conditions: for staining intensity of TGF-β2-induced proteins (CTGF, α-SMA, fibronectin): samples 5-6 (A-83-01 1.0, 3.0 μM) and 13-14 (SB-431542 3.0, 10.0 μM), 2 ng/ml TGF-β2, 72 hours
Experimental: (§4) In another example, subconjunctival fibroblasts were cultured on 8-well chamber slides. The samples were prepared as in samples 5-6 and 13-16 and incubated for 72 hours. After inhibitor treatment, the fibroblast cultures were fixed with 4% paraformaldehyde or with ice-cold methanol for Alexa Fluor or FITC staining, respectively. After permeabilization, the cells cultures were incubated with polyclonal goat anti-CTGF (1:50, Santa Cruz) followed by Alexa Fluor donkey anti-goat IgG (10 μg/mL, Invitrogen), monoclonal mouse anti-fibronectin (10 μg/mL, Invitrogen) or monoclonal mouse anti-α-SMA (1:400, Sigma) followed by FITC goat anti-mouse IgG (1:100, Jackson ImmunoResearch). The cell cultures were mounted with aqueous mounting media with DAPI and viewed by fluoresence microscopy.
Nuclei were stained with DAPI (blue).

TGF-β2-induced proteins [3] = system: TGF-β2-induced proteins
Experimental: as §4
Nuclei were stained with DAPI (blue).

Row | Compound | band intensity for fibronectin and α-SMA compared with samples not treated with the inhibitors (TGF-β2 signaling pathway) | fibronectin and α-SMA protein expression induced by TGF-B2 (TGF-β2 signaling pathway) | cell toxicity [1] | TGF-β2 activity related to wound healing [1] | cell death (rabbit fibroblasts; sample 6 (3.0 μM), sample 14 (10.0 μM)) | TGF-β2-induced morphologic change (myofibroblast-like appearance) (rabbit fibroblasts) | staining intensity of TGF-β2-induced proteins (CTGF, α-SMA, fibronectin) (TGF-β2-induced proteins [2]) | cell death (TGF-β2-induced proteins [2]; samples 5-6 and 13-14, 72 hours) | cell death (TGF-β2-induced proteins [3])
1 | Cc1cccc(-c2nn(C(=S)Nc3ccccc3)cc2-c2ccnc3ccccc23)n1 [A-83-01] | reduced | effectively inhibited | No obvious cell toxicity | effectively block | No obvious cell death | seemed to be averted | greatly reduced | No obvious cell death | 
2 | NC(=O)c1ccc(-c2nc(-c3ccc4c(c3)OCO4)c(-c3ccccn3)[nH]2)cc1 [SB-431542] | reduced | effectively inhibited | No obvious cell toxicity | effectively block |  | seemed to be averted | greatly reduced |  | No obvious cell death
